Test: xn = mol fraction of the nth substance listed
Settings: 101 kPa; for viscosity: 298.1 K; for electrical conductivity: 298.15 K

CC[n+]1ccn(C)c1.N#C[N-]C#N + CC[n+]1ccn(C)c1.F[B-](F)(F)F
viscosity (x2 = 0): 17.4 mPa·s
viscosity (x2 = 0.2164): 19.7 mPa·s
viscosity (x2 = 0.3218): 21.4 mPa·s
viscosity (x2 = 0.474): 23 mPa·s
electrical conductivity (x2 = 0): 2.83 S/m
electrical conductivity (x2 = 0.0448): 2.79 S/m
electrical conductivity (x2 = 0.2164): 2.61 S/m
electrical conductivity (x2 = 0.3218): 2.49 S/m
electrical conductivity (x2 = 0.474): 2.3 S/m
electrical conductivity (x2 = 0.6254): 2.1 S/m
electrical conductivity (x2 = 0.7856): 1.87 S/m
electrical conductivity (x2 = 0.9447): 1.64 S/m

CC[n+]1ccn(C)c1.F[B-](F)(F)F + CC[n+]1ccn(C)c1.N#C[N-]C#N
viscosity (x1 = 1): 36.8 mPa·s
electrical conductivity (x1 = 1): 1.55 S/m

Source: a compilation of properties of binary mixtures (doi:10.1016/j.molliq.2009.05.001)
